Columns and labels:
Format in all cases: cell-based
[1] = test system: STAPHYLOCOCCUS AUREUS ATCC 6538P; test: In vitro antibacterial activity, MIC, BHI agar dilution; conditions: S. aureus ATCC 6538P, 35-37° C., 20 to 24 hours, unit assumed
[2] = test system: STAPHYLOCOCCUS AUREUS A5177; test: as above; conditions: S. aureus A5177, unit assumed
[3] = test system: STAPHYLOCOCCUS AUREUS A-5278; test: as above; conditions: S. aureus A-5278, unit assumed
[4] = test system: STAPHYLOCOCCUS AUREUS CMX 642A; test: as above; conditions: S. aureus CMX 642A, unit assumed
[5] = test system: STAPHYLOCOCCUS AUREUS NCTC10649M; test: as above; conditions: S. aureus NCTC10649M, unit assumed
[6] = test system: STAPHYLOCOCCUS AUREUS CMX 553; test: as above; conditions: S. aureus CMX 553, unit assumed
[7] = test system: STAPHYLOCOCCUS AUREUS 1775; test: as above; conditions: S. aureus 1775, unit assumed
[8] = test system: STAPHYLOCOCCUS EPIDERMIDIS 3519; conditions: S. epidermidis 3519; BHI agar; unit assumed
EN[…] ATCC 8043 = test: In vitro antibacterial activity, MIC, BHI agar dilution; conditions: E. faecium ATCC 8043, unit assumed
Summary of the method: (§1)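 BHI agar dilution: twelve plates with successive compound dilutions, inoculated by replicator with 1:100 culture dilutions (1:10 for slow growers such as Micrococcus and Streptococcus), 20 to 24 hours at 35-37° C. MIC was the lowest concentration giving no growth, slight haze or sparse isolated colonies versus drug-free control; erythromycin A as class reference.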

M[…] ATCC 4698 = test: as above; conditions: M. luteus ATCC 4698, unit assumed
Summary of the method: as §1

M[…] ATCC 9341 = test: as above; conditions: M. luteus ATCC 9341, unit assumed
Summary of the method: as §1

STR[…] 508 = test: as above; conditions: S. agalactiae CMX 508, unit assumed
Summary of the method: as §1

[9] = test system: STREPTOCOCCUS BOVIS A-5169; test: as above; conditions: S. bovis A-5169, unit assumed
[10] = test system: STREPTOCOCCUS PYOGENES EES61; test: as above; conditions: S. pyogenes EES61, unit assumed
[11] = test system: STREPTOCOCCUS PYOGENES 930; test: as above; conditions: S. pyogenes 930, unit assumed
[12] = test system: STREPTOCOCCUS PYOGENES PIU 2548; test: as above; conditions: S. pyogenes PIU 2548, unit assumed
ESCHERICHIA COLI JUHL = conditions: E. coli JUHL; BHI agar; unit assumed
ESCHERICHIA COLI SS = test: In vitro antibacterial activity, MIC, BHI agar dilution; conditions: E. coli SS, unit assumed
ESCHERICHIA COLI DC-2 = test: as above; conditions: E. coli DC-2, unit assumed
ESCHERICHIA COLI H560 = test: as above; conditions: E. coli H560, unit assumed
ESCHERICHIA COLI KNK 437 = conditions: E. coli KNK 437; BHI agar; unit assumed
[13] = test system: ENTEROBACTER AEROGENES ATCC 13048; test: In vitro antibacterial activity, MIC, BHI agar dilution; conditions: E. aerogenes ATCC 13048, unit assumed
[14] = test system: KLEBSIELLA PNEUMONIAE ATCC 8045; test: as above; conditions: K. pneumoniae ATCC 8045, unit assumed
[15] = test system: PROVIDENCIA STUARTII CMX 640; conditions: P. stuartii CMX 640; BHI agar; unit assumed
[16] = test system: PSEUDOMONAS AERUGINOSA BMH10; test: In vitro antibacterial activity, MIC, BHI agar dilution; conditions: P. aeruginosa BMH10, unit assumed
[17] = test system: PSEUDOMONAS AERUGINOSA 5007; test: as above; conditions: P. aeruginosa 5007, unit assumed
[18] = test system: PSEUDOMONAS AERUGINOSA K799/WT; test: as above; conditions: P. aeruginosa K799/WT, unit assumed
[19] = test system: PSEUDOMONAS AERUGINOSA K799/61; test: as above; conditions: P. aeruginosa K799/61, unit assumed
PSEUDOMONAS CEPACIA 296I = test: as above; conditions: P. cepacia 296I, unit assumed
[20] = test system: ACINETOBACTER CALCOACETICUS CMX 669; test: as above; conditions: A. calcoaceticus CMX 669, unit assumed
[21] = test system: PSEUDOMONAS AERUGINOSA DPHD-5263; test: as above; conditions: P. aeruginosa DPHD-5263, unit assumed
[22] = test system: PSEUDOMONAS AERUGINOSA DPHD-2862; test: as above; conditions: P. aeruginosa DPHD-2862, unit assumed
CANDIDA ALBICANS CCH 442 = test: as above; conditions: C. albicans CCH 442, unit assumed
[23] = test system: MYCOBACTERIUM SMEGMATIS ATCC 114; test: as above; conditions: M. smegmatis ATCC 114, unit assumed

Measured: MIC

CC[C@H]1OC(=O)[C@H](C)C(=O)[C@H](C)[C@@H](O[C@@H]2O[C@H](C)C[C@H](N(C)C)[C@H]2O)[C@](C)(OC)C[C@@H](C)C2=N[C@H](COCc3ccccc3Br)CN3C(=O)O[C@@]1(C)[C@H]3[C@H]2C [Example 104]
25 µg/mL: [11]
0.05 µg/mL: [1] | [2] | [4] | [5] | [6] | [8] | [12]
0.39 µg/mL: [23]
0.1 µg/mL: M[…] ATCC 4698
0.78 µg/mL: ESCHERICHIA COLI SS
50 µg/mL: ESCHERICHIA COLI H560
3.1 µg/mL: [19]
100 µg/mL: [3] | [7] | ESCHERICHIA COLI JUHL | ESCHERICHIA COLI DC-2 | PSEUDOMONAS CEPACIA 296I | [20] | CANDIDA ALBICANS CCH 442
0.02 µg/mL: M[…] ATCC 9341
0.01 µg/mL: EN[…] ATCC 8043 | STR[…] 508 | [9] | [10]
> 100 µg/mL: all other assays above

CC[C@H]1OC(=O)[C@H](C)C(=O)[C@H](C)[C@@H](O[C@@H]2O[C@H](C)C[C@H](N(C)C)[C@H]2O)[C@](C)(OC)C[C@@H](C)C2=N[C@H](COCc3cccc(Br)c3)CN3C(=O)O[C@@]1(C)[C@H]3[C@H]2C [Example 105]
≤ 0.005 µg/mL: EN[…] ATCC 8043 | M[…] ATCC 9341 | STR[…] 508 | [9] | [10]
25 µg/mL: [11]
50 µg/mL: ESCHERICHIA COLI H560
0.02 µg/mL: [5]
0.78 µg/mL: [23]
1.56 µg/mL: [19]
100 µg/mL: [3] | [7] | ESCHERICHIA COLI JUHL | ESCHERICHIA COLI DC-2 | PSEUDOMONAS CEPACIA 296I | [20] | CANDIDA ALBICANS CCH 442
0.01 µg/mL: M[…] ATCC 4698
0.39 µg/mL: ESCHERICHIA COLI SS
0.05 µg/mL: [1] | [2] | [4] | [6] | [8] | [12]
> 100 µg/mL: all other assays above

CC[C@H]1OC(=O)[C@H](C)C(=O)[C@H](C)[C@@H](O[C@@H]2O[C@H](C)C[C@H](N(C)C)[C@H]2O)[C@](C)(OC)C[C@@H](C)C2=NC3CN(CCc4ccccc4[N+](=O)[O-])CC3N3C(=O)O[C@@]1(C)[C@H]3[C@H]2C (stereo partly drawn) [Example 119]
0.2 µg/mL: [5] | [6]
0.39 µg/mL: [1] | [2] | [4] | [8] | M[…] ATCC 4698
100 µg/mL: ESCHERICHIA COLI JUHL | [20]
0.1 µg/mL: EN[…] ATCC 8043
0.02 µg/mL: STR[…] 508 | [9] | [10]
0.05 µg/mL: M[…] ATCC 9341
0.78 µg/mL: [12] | ESCHERICHIA COLI SS | [19] | [23]
> 100 µg/mL: all other assays above

— patent publication US6274715A, “Tricyclic erythromycin derivatives” (priority 1997, dated 2001)
